We go through one compound from PMC7819857, “Identification of Inhibitors of Integrin Cytoplasmic Domain Interactions With Syk” (Frontiers in Immunology, 2021).

Where two headings read alike, the source gives them in different places.

Assay [1] deals with T1, integrin β2 cytoplasmic domain : GST-Syk(6-370) (Homo sapiens, UniProt P43405).
T1 construct: made in house; host or cells: E. coli BL21(DE3)
Kind of assay: AlphaScreen of integrin β2 cytoplasmic domain binding to Syk. Conditions: read-out: antagonist activity against β2 (value without measure name), AlphaScreen. How it is done:
(§1) The following HTS assay was developed to identify antagonists of the interaction between the integrin β3 cytoplasmic domain and the non-receptor tyrosine kinase Syk. […] ( Figure 1E ). Background signals in this assay were determined by omitting the integrin β3 peptide. Specific assay conditions are described in Table 1 . […] Then, either dimethyl sulfoxide control or compound was added, followed by biotinylated β3 peptide, and avidin-coated AlphaScreen donor beads. After a 4-h incubation period at room temperature (while protected from light), assays plates were read on an Infinite M1000 (Tecan) multiplate reader (Ex. 680/30; Em. 570/100).
(§2) Figure 4 Ceftazidime inhibition of integrin signaling. (A) Dose-response curves comparing ceftazidime antagonist activity against integrin β1A, β2, and β3 cytoplasmic domains binding to Syk as measured in AlphaScreen assays. […] Data are expressed as mean fluorescence (Fl520) ± the range from duplicate determinations. One of three experiments is shown. (B) Flow cytometric analysis of integrin α4β1, β2 subunit, αVβ3, and FcγRI (CD64) on THP-1 cells. Isotype control staining is shown as light gray histograms. Specific integrin staining is shown as darker gray histograms. […] One representative blot is shown (top), along with quantification of three separate experiments normalized to maximum Syk phosphorylation (bottom). Results are expressed as the mean ± SEM.

Assay [2] has as its target T2, integrin β3 cytoplasmic domain : tandem SH2 domains of Syk (GST-Syk(6-370)) (Homo sapiens, UniProt P43405).
T2 construct: the tandem SH2 domains of Syk (residues 6-370); made in house; host or cells: E. coli BL21(DE3)
Kind of assay: AlphaScreen of integrin β3 cytoplasmic domain peptide binding to GST-Syk(6-370). How it is done: as §1
Figure 3 Dose-response curves in primary and orthogonal screens. (A) AlphaScreen dose-response curves. […] Data are expressed as mean fluorescence (Fl520) ± range from duplicates, and one representative experiment of “n” performed is shown. (B) Orthogonal ELISA-based dose-response assays. […] Data are expressed as mean abs450 ± SEM from triplicate determinations, and one of three representative experiments is shown. (C) Ceftazidime inhibition of β3 peptide binding to Syk from THP-1 whole cell lysate. THP-1 cell lysate (100 ug) was treated with or without ceftazidime (Ctaz) before incubation with β3-coated avidin-agarose beads, and bound Syk was measured by western blot (example shown in inset). Blank beads served as a negative control. Equal β3 peptide loading was verified by probing blots with avidin-HRP (not shown).
On the technique in general: In Alpha technology, singlet oxygen from a donor bead excites a nearby acceptor bead.

The target of assay [3] is T3, full-length Syk (Homo sapiens, UniProt P43405).
T3 construct: ceftazidime had no effect on the catalytic function of full-length Syk
Kind of assay: Syk kinase activity assay. The class given is biochemical. The conditions noted are these: 100 uM, 100-fold higher than the AlphaScreen IC50. From the text:
Figure 6 Selective inhibition of integrin signaling by ceftazidime. (A) Schematic illustration of the pITAM-Syk AlphaScreen used to test antagonist selectivity. (B) Comparison between ceftazidime (Ctaz) and pITAM peptide inhibition of pITAM-Syk binding in the AlphaScreen assay described in (A). […] Data are expressed as mean ± range from duplicate determinations. One of four representative assays is shown. (C) Effect of ceftazidime on Syk kinase activity. Ceftazidime (Ctaz) or Syk inhibitor P505-15 was used at 100 uM. Kinase activity is expressed as percent of maximum signal. Data are expressed as mean ± SEM (n = 3). **p < 0.01 (D) Selective effects of ceftazidime on integrin signaling. […] Phosphorylation of Syk (left and right panel) and Pyk-2 (center panel) was analyzed by immunoprecipitation and western blot. […] Quantification is shown below (left panel, n = 5; center panel, n = 3; right panel, n = 3), normalized to phosphorylation in suspension. Results are expressed as the mean ± SEM. […] Expression of interleukin (IL)-1β and monocyte chemoattractant protein (MCP)-1 genes was examined by quantitative real-time polymerase chain reaction. Data are expressed as expression levels relative to control cells kept in suspension. […] P-values were calculated by the Student t test. […]

Assay [4] has as its target T4, integrin β1A cytoplasmic domain : GST-Syk(6-370) (Homo sapiens, UniProt P43405).
T4 construct: made in house; host or cells: E. coli BL21(DE3)
Kind of assay: AlphaScreen of integrin β1A cytoplasmic domain binding to Syk. Conditions: read-out: antagonist activity against β1 (value without measure name), AlphaScreen. How it is done: as §1, §2

As for `CC(C)(O/N=C(\C(=O)N[C@@H]1C(=O)N2C(C(=O)[O-])=C(C[n+]3ccccc3)CS[C@H]12)c1csc(N)n1)C(=O)O` [ceftazidime], the IC50 in assay [1] was 1530 ± 210 nM; in assay [2] (Figure 3A: biotinylated-b3(sh) peptide 30 nM, GST-Syk(6-370) 0.3 nM, read-out: IC50, AlphaScreen dose-response), 1020 ± 200 nM; in assay [2] (abstract summary for both compounds, read-out: IC50 range, inhibition of integrin β-subunit cytoplasmic domain binding to the tandem SH2 domains of Syk), 1020 to 4900 nM; in assay [2] (as restated in the Discussion, read-out: IC50 in AlphaScreen assays), 1000 nM; in assay [2] (biotinylated β chain peptide 30 nM, GST-Syk(6-370) 0.3 nM, Figure 4A, read-out: antagonist activity against β3 (value without measure name), AlphaScreen), 1870 ± 200 nM; in assay [4], 1620 ± 410 nM. In addition, the “fold difference in inhibition, primary screen over false-positive counter screen (hit criterion)” value in assay [2] (re-sourced compounds, counter screen with biotinylated GST) was “greater than 3 fold”. For the same compound, the “inhibition of fluorescent signal in the primary screen, re-sourced compounds (hit criterion)” value in assay [2] (re-sourced from a separate commercial source, 25 uM in text, 30 uM in legend of Figure 2C) is reported as “greater than 50%”. Further, in assay [3], the “effect on the catalytic function of full-length Syk” value is reported as “no effect”.
